Where two headings read alike, the source gives them in different places. Non-standard residues stand in square brackets, D forms with d. Residues, ends and D or L forms follow the SMILES beside them. *: point of attachment. Myristoyl = CCCCCCCCCCCCCC(=O)*; Lauroyl = CCCCCCCCCCCC(=O)*; Decanoyl = CCCCCCCCCC(=O)*; Octanoyl = CCCCCCCC(=O)*; Hexanoyl = CCCCCC(=O)*
Legend:
[1] = Hydrophobicity by analytical RP-HPLC (%B at elution); format: physicochemical; settings: chromatographic, analytical reversed-phase HPLC, Waters Symmetry C18 5 μm 4.6 × 250 mm; A: H2O + 0.1% TFA, B: 90:10 ACN-H2O + 0.1% TFA
Method: Peptide purity was determined as described previously by analytical RP-HPLC using a Waters 717 plus Autosampler, In-line Degasser AF, 600 Controller, and 2996 Photodiode Array Detector; the column used was a Waters Symmetry C18 column (5 μm, 4.6 mm × 250 mm, Milford, MA, USA). An aqueous acetonitrile (ACN) gradient with 0.1% TFA added (mixing eluent A: H2O + 0.1% TFA and eluent B: 90:10 ACN-H2O + 0.1% TFA) was employed using milli-Q water. Preparative RP-HPLC was performed by using a Waters XSelect Peptide CSH C18 OBDTM column (5 μm, 19 mm × 250 mm, Milford, MA, USA) with the same eluents as for analytical HPLC.
*Hydrophobicity as indicated by the percentage of mobile phase B (%B) at the peak elution time on analytical

[2] = test system: human erythrocytes; settings: 150 μM peptide; 0.5% (v/v) red blood cell suspension in PBS, 1 h at 37 °C, absorbance 414 nm; melittin positive control, PBS negative control; three wells
Method: PBS served as the negative control and 5 μM melittin served as the positive control. All melittin solutions were prepared in Protein LoBind Eppendorf tubes to prevent the adsorption of melittin to the inner surface of the tubes.
Preparation of peptide solutions and melittin: A 5 μM melittin solution in PBS was prepared the day before the hemolysis experiment. First, 150 μL of this solution was transferred to each of the positive control wells and stored in the fume hood to coat the wells. On the day of the experiment, the melittin solution was discarded and the wells were washed with 3 × PBS. A 2.5 μM melittin solution in PBS was prepared and 75 μL was transferred to the wells. PBS (150 μL) was used as the negative control. A solution of each peptide was prepared by dissolving the peptide in 0.5 mL PBS to obtain a concentration of 300 μM. Each peptide solution (150 μL) was transferred to the wells in three wells each in row A, and the plate was diluted down.
Preparation of the red blood cell suspension: 1 mL of type O- whole blood in citrate was transferred to a cryotube. The whole blood was washed with 3 × PBS; adding 3, 3, and 4 mL of PBS, respectively. In between, the blood was centrifuged for 8 min (3000, 3000, and 4000 rpm, respectively) and the supernatant was removed after each centrifugation. A 0.5% (v/v) blood suspension was prepared by adding 40 μL of the washed blood cells to 8 mL of PBS. Then, 75 μL of the red blood cell suspension was transferred to each well and mixed gently. The plate was sealed and incubated for 1 h at 37 °C. After incubation, the plate was centrifuged at 4000 rpm for 10 min. Afterwards, 60 μL of the supernatant from each well was quickly transferred to an ELISA plate.
The absorbance was determined at 414 nm, and Equation (1) below was used to calculate the hemolytic activity of the peptides.

[3] = test system: A. baumannii (ATCC 19606); format: cell-based, Acinetobacter baumannii; settings: A. baumannii ATCC 19606, MHB-II, 37 °C, 18–24 h, triplicate
Method: (§1) The following bacteria were grown in cation-adjusted Muller-Hinton broth at 37 °C with shaking: A. baumannii (ATCC 19606), E. coli (ATCC 25922), K. pneumoniae (ATCC 13883), P. aeruginosa (ATCC 27853), and S. aureus (ATCC 29213).
(§2) The MIC experiments were performed in triplicate, as described in Jensen et al.. Briefly, all peptide stock solutions were prepared by dissolving each peptide in Milli-Q water to obtain a concentration of 10 mg/mL. A bacterial concentration of 10^6 CFU/mL was obtained through the dilution of an overnight culture (MHB-II medium). When the overnight culture was prepared, the OD was measured using a spectrophotometer and when an OD value between 0.2 and 0.4 was obtained, the culture was diluted to OD = 0.002. The MIC determination was carried out in 96-well polypropylene microtitre plates. […] A final bacterial inoculum of 5 × 10^5 CFU/mL per well was obtained by adding 50 μL bacterial suspension to the microtiter plates. The plates were incubated at 37 °C for 18–24 h. To verify the CFU, 10 μL of bacteria suspension was transferred to 990 μL 0.9 % saline solution, from which a 10-fold dilution was carried out. Then, 100 μL of the dilution was plated on an LB plate and left for bacterial growth overnight at 37 °C. Colistin and vancomycin were used as the positive controls.

[4] = test system: P. aeruginosa (ATCC 27853); format: cell-based, Pseudomonas aeruginosa; settings: P. aeruginosa ATCC 27853, MHB-II, 37 °C, 18–24 h, triplicate
Method: as §1, §2

[5] = test system: E. coli (ATCC 25922); format: cell-based, Escherichia coli; settings: E. coli ATCC 25922, MHB-II, 37 °C, 18–24 h, triplicate
Method: as §1, §2

[6] = test system: S. aureus (ATCC 29213); assay: MIC determination, broth microdilution; format: cell-based, Staphylococcus aureus; settings: S. aureus ATCC 29213, MHB-II, 37 °C, 18–24 h, triplicate
Method: as §1, §2

[7] = test system: K. pneumoniae (ATCC 13883); format: cell-based, Klebsiella pneumoniae; settings: K. pneumoniae ATCC 13883, MHB-II, 37 °C, 18–24 h, triplicate
Method: as §1, §2

Structure (SMILES) | %B (hydrophobicity: percentage of mobile phase B at the peak elution time) [1] [%B] | % hemolysis of human erythrocytes [2] [%] | MIC AB ([3]; inoculum 5 × 10^5 CFU/mL) [µg/mL] | MIC AB ([3]; value in brackets) [µM] | MIC PA ([4]; inoculum 5 × 10^5 CFU/mL) [µg/mL] | MIC PA ([4]; value in brackets) [µM] | MIC EC ([5]; inoculum 5 × 10^5 CFU/mL) [µg/mL] | MIC EC ([5]; value in brackets) [µM] | MIC SA ([6]; inoculum 5 × 10^5 CFU/mL) [µg/mL] | MIC SA ([6]; value in brackets) [µM] | MIC KP ([7]; inoculum 5 × 10^5 CFU/mL) [µg/mL] | MIC KP ([7]; value in brackets) [µM]
CCCCCC(=O)N[C@H](CCCCN)C(=O)N[C@H](CCCCN)C(=O)N[C@H](CC(C)C)C(=O)N[C@H](Cc1ccccc1)C(=O)N[C@H](CCCCN)C(=O)N[C@H](CCCCN)C(=O)N[C@@H](C(=O)N[C@H](CC(C)C)C(=O)N[C@H](CCCNC(=N)N)C(=O)N[C@H](Cc1ccc(O)cc1)C(=O)N[C@H](CC(C)C)C(N)=O)[C@H](C)CC [compound 2] (Hexanoyl-[dK][dK][dL][dF][dK][dK][dI][dL][dR][dY][dL]-NH2) | 67.9 | 100 | 4 | 2.6 | 32 | 20.7 | 8 | 5.2 | 64 | 41.4 | 8 | 5.2
CCCCCCCC(=O)N[C@H](CCCCN)C(=O)N[C@H](CCCCN)C(=O)N[C@H](CC(C)C)C(=O)N[C@H](Cc1ccccc1)C(=O)N[C@H](CCCCN)C(=O)N[C@H](CCCCN)C(=O)N[C@@H](C(=O)N[C@H](CC(C)C)C(=O)N[C@H](CCCNC(=N)N)C(=O)N[C@H](Cc1ccc(O)cc1)C(=O)N[C@H](CC(C)C)C(N)=O)[C@H](C)CC [compound 3] (Octanoyl-[dK][dK][dL][dF][dK][dK][dI][dL][dR][dY][dL]-NH2) | 64.1 | 100 | 4 | 2.5 | 32 | 20.3 | 16 | 10.2 | – | 40.1 | 8 | 5.1
CCCCCCCCCC(=O)N[C@H](CCCCN)C(=O)N[C@H](CCCCN)C(=O)N[C@H](CC(C)C)C(=O)N[C@H](Cc1ccccc1)C(=O)N[C@H](CCCCN)C(=O)N[C@H](CCCCN)C(=O)N[C@@H](C(=O)N[C@H](CC(C)C)C(=O)N[C@H](CCCNC(=N)N)C(=O)N[C@H](Cc1ccc(O)cc1)C(=O)N[C@H](CC(C)C)C(N)=O)[C@H](C)CC [compound 4] (Decanoyl-[dK][dK][dL][dF][dK][dK][dI][dL][dR][dY][dL]-NH2) | 85.0 | 100 | 32 | 20.0 | 32 | 20.0 | 32 | 20.0 | 32 | 20.0 | 32 | 20.0
CCCCCCCCCCCC(=O)N[C@H](CCCCN)C(=O)N[C@H](CCCCN)C(=O)N[C@H](CC(C)C)C(=O)N[C@H](Cc1ccccc1)C(=O)N[C@H](CCCCN)C(=O)N[C@H](CCCCN)C(=O)N[C@@H](C(=O)N[C@H](CC(C)C)C(=O)N[C@H](CCCNC(=N)N)C(=O)N[C@H](Cc1ccc(O)cc1)C(=O)N[C@H](CC(C)C)C(N)=O)[C@H](C)CC [compound 5] (Lauroyl-[dK][dK][dL][dF][dK][dK][dI][dL][dR][dY][dL]-NH2) | 90.5 | 100 | 64 | 39.2 | 64 | 39.2 | 64 | 39.2 | 64 | 39.2 | 64 | 39.2
CCCCCCCCCCCCCC(=O)N[C@H](CCCCN)C(=O)N[C@H](CCCCN)C(=O)N[C@H](CC(C)C)C(=O)N[C@H](Cc1ccccc1)C(=O)N[C@H](CCCCN)C(=O)N[C@H](CCCCN)C(=O)N[C@@H](C(=O)N[C@H](CC(C)C)C(=O)N[C@H](CCCNC(=N)N)C(=O)N[C@H](Cc1ccc(O)cc1)C(=O)N[C@H](CC(C)C)C(N)=O)[C@H](C)CC [compound 6] (Myristoyl-[dK][dK][dL][dF][dK][dK][dI][dL][dR][dY][dL]-NH2) | 96.5 | 100 | > 64 | > 38.6 | > 64 | > 38.6 | > 64 | > 38.6 | > 64 | – | > 64 | > 38.6
CC[C@@H](C)[C@@H](NC(=O)[C@@H](CCCCN)NC(=O)[C@@H](CCCCN)NC(=O)[C@@H](Cc1ccccc1)NC(=O)[C@@H](CC(C)C)NC(=O)[C@@H](CCCCN)NC(=O)[C@H](N)CCCCN)C(=O)N[C@H](CC(C)C)C(=O)N1CCCC[C@H](C(N)=O)NC(=O)[C@@H](Cc2ccc(O)cc2)NC(=O)[C@@H](CCCNC(=N)N)NC(=O)C1 [compound 7] | 44.1 | 3 | > 64 | > 42.6 | > 64 | > 42.6 | > 64 | > 42.6 | > 64 | > 42.6 | > 64 | > 42.6
CC[C@@H](C)[C@H]1NC(=O)CN(C(=O)[C@@H](CCCCN)NC(=O)[C@@H](CCCCN)NC(=O)[C@@H](Cc2ccccc2)NC(=O)[C@@H](CC(C)C)NC(=O)[C@@H](CCCCN)NC(=O)[C@H](N)CCCCN)CCCC[C@H](C(N)=O)NC(=O)[C@@H](Cc2ccc(O)cc2)NC(=O)[C@@H](CCCNC(=N)N)NC(=O)[C@@H](CC(C)C)NC1=O [compound 9] | 46.6 | 3 | > 64 | > 42.6 | > 64 | > 42.6 | > 64 | > 42.6 | > 64 | > 42.6 | > 64 | > 42.6
CCCCCCCCCC(=O)N[C@H](CCCCN)C(=O)N[C@H](CCCCN)C(=O)N[C@H](CC(C)C)C(=O)N[C@H](Cc1ccccc1)C(=O)N[C@H](CCCCN)C(=O)N[C@H](CCCCN)C(=O)N[C@@H](C(=O)N[C@H](CC(C)C)C(=O)N1CCCC[C@H](C(N)=O)NC(=O)[C@@H](Cc2ccc(O)cc2)NC(=O)[C@@H](CCCNC(=N)N)NC(=O)C1)[C@H](C)CC [compound 10] | 62.7 | 81 | 4 | 2.4 | 4 | 2.4 | 4 | 2.4 | 4 | 2.4 | 8 | 4.8
